Like-named read-outs stand apart in the source and are kept apart here.
Test system: Swiss Albino or CD-1 male mice
Assay: Acetic acid writhing (AAW) analgesic assay
Assay type: in vivo, mouse
Settings: for inhibition in vivo at 30 mg/kg: Mus musculus, 20 min, read-out: AAW % Efficacy
Description: Approaches for evaluating analgesic activity of a compound of the present invention in vivo include a “writhing test.” Briefly, the compound to be tested is administered [by, for example, injection (e.g., subcutaneous injection)] to the mouse. Thereafter, a 0.5% acetic acid solution is administered (i.p.) to a mouse and the numbers of writhing responses are counted for twenty minutes. Antinociception is quantified as reduction in the number of writhes respective to vehicle.
An analgesic assay was used to determine whether a given compound can reduce and/or prevent visceral pain in mice. The assay utilizes Swiss Albino or CD-1 male mice (5-10 mice per group), each mouse being approximately 0.015-0.030 kg on the study day. Mice were treated according to standard protocols.
The animal was given an intraperitoneal (IP) injection of an irritant (acetic acid) that induces “writhing” which may include: contractions of the abdomen, twisting and turning of the trunk, arching of the back and the extension of the hindlimbs. Mice are given a single IP injection (0.1 mL/10 g bodyweight) of a 0.5% acetic acid solution. After the injection the animals were returned to their observation enclosure and their behavior was observed. Contractions were counted between 0 and 20 minutes after the injection. The animals were used once. In certain instances, the test articles were administered at multiple doses to determine a dose response curve.
Table 4 provides the results for certain compounds of the present invention that were administered subcutaneously. Table 5 provides the results for certain compounds of the present invention that were administered orally.

Question: For COCCOCCOCCOCCOCCNc1cccc(Nc2ccc3c(c2)[C@]2(C)CCN(CC4CC4)[C@H](C3=O)[C@@H]2C)c1 [Compound 11, (2S,6R,11R)-8-((3-(2,5,8,11,14-pentaoxahexadecan-16-ylamino)phenyl)amino)-3-(cyclopropylmethyl)-6,11-dimethyl-3,4,5,6-tetrahydro-2,6-methanobenzo[d]azocin-1(2H)-one], which inhibition in vivo at 30 mg/kg (sc, subcutaneous) is on record?
Answer: 100%

Question: For C[C@H]1[C@H]2C(=O)c3ccc(Nc4ccc(NCCOCCOCCOCCOCCOC(F)(F)F)cc4)cc3[C@]1(C)CCN2CC1CC1 [Compound 20, (2S,6R,11R)-3-(cyclopropylmethyl)-6,11-dimethyl-8-((4-((1,1,1-trifluoro-2,5,8,11,14-pentaoxahexadecan-16-yl)amino)phenyl)amino)-3,4,5,6-tetrahydro-2,6-methanobenzo[d]azocin-1(2H)-one], which inhibition in vivo at 30 mg/kg (oral) is on record?
Answer: 100%

Question: COCCOCCOCCOCCOCCOc1cccc(Nc2ccc3c(c2)[C@]2(C)CCN(CC4CC4)[C@H](C3=O)[C@@H]2C)c1 [Compound 8, (2S,6R,11R)-8-((3-(2,5,8,11,14-pentaoxahexadecan-16-yloxy)phenyl)amino)-3-(cyclopropylmethyl)-6,11-dimethyl-3,4,5,6-tetrahydro-2,6-methanobenzo[d]azocin-1(2H)-one] was tested. Which “AAW % Efficacy” value (subcutaneous, 30 mg/kg) did it give?
Answer: 100.0%

Source: patent publication US10865186B2, “Opioid agonists and uses thereof” (Nektar Therapeutics, priority 2013, dated 2020)
